In article PMC6084503, “Pyrrolo[3,2-c]pyridine derivatives with potential inhibitory effect against FMS kinase: in vitro biological studies” (Journal of Enzyme Inhibition and Medicinal Chemistry, 2018):

Legend:
HS 27 fibroblasts = assay: Antiproliferative screening against HS 27 fibroblasts; format: cell-based; conditions: Homo sapiens, HS27; HS-27 Fibroblasts (normal cells); concentration producing 50% inhibition
Procedure: It was conducted following the previously reported protocol.
Due to over-expression of FMS kinase in certain types of tumours such as ovarian, prostate, and breast[5–7] cancers, we decided to test the antiproliferative activity of compound 1r against a panel of six ovarian, two prostate, and five breast cancer cell lines. It was also tested against HS 27 fibroblasts in order to investigate the selectivity indexes. The results were compared with those of KIST101029 as a reference standard.

IKKβ = target: T1, IKKβ (Homo sapiens, UniProt O14920); assay: Kinase HotSpot 40-kinase panel; format: biochemical; conditions: single-dose concentration of 1 μM
T1 construct: purchased Reaction Biology Corp. (Kinase HotSpot)
Procedure: (§1) Reaction Biology Corp. Kinase HotSpot^SM service [http://www.reactionbiology.com] was utilised for screening of the target compounds as per the protocol reported in the literature.
(§2) Compound 1r was tested against a panel of 40 kinases including FMS. […] Its inhibition percentages against FLT3 (D835Y) and c-MET kinases were 42% and 40%, respectively. So its IC50 values against both of them will be in micromolar scale. […] The inhibition percentages exerted by compound 1r against the other 37 tested kinases were less than 28%.

ABL1 = target: T2, ABL1 (Homo sapiens, UniProt P00519); assay: Kinase HotSpot 40-kinase panel; format: biochemical; conditions: single-dose concentration of 1 μM
T2 construct: purchased Reaction Biology Corp. (Kinase HotSpot)
Procedure: as §1, §2

Aurora A = target: T3, Aurora A (Homo sapiens, UniProt O14965); assay: Kinase HotSpot 40-kinase panel; format: biochemical; conditions: single-dose concentration of 1 μM
T3 construct: purchased Reaction Biology Corp. (Kinase HotSpot)
Procedure: as §1, §2

PDK1 = target: T4, PDK1 (Homo sapiens, UniProt O15530); assay: Kinase HotSpot 40-kinase panel; format: biochemical; conditions: single-dose concentration of 1 μM
T4 construct: purchased Reaction Biology Corp. (Kinase HotSpot)
Procedure: as §1, §2

PLK1 = target: T5, PLK1 (Homo sapiens, UniProt P53350); assay: Kinase HotSpot 40-kinase panel; format: biochemical; conditions: single-dose concentration of 1 μM
T5 construct: purchased Reaction Biology Corp. (Kinase HotSpot)
Procedure: as §1, §2

TEC (activated) = target: T6, TEC (activated) (Homo sapiens, UniProt P42680); assay: Kinase HotSpot 40-kinase panel; format: biochemical; conditions: single-dose concentration of 1 μM
T6 construct: purchased Reaction Biology Corp. (Kinase HotSpot)
Procedure: as §1, §2

CDK2/cyclinE = target: T7, CDK2/cyclinE (Homo sapiens, UniProt P24941); assay: Kinase HotSpot 40-kinase panel; format: biochemical; conditions: single-dose concentration of 1 μM
T7 construct: purchased Reaction Biology Corp. (Kinase HotSpot)
Procedure: as §1, §2

JNK1α1 = target: T8, JNK1α1 (Homo sapiens, UniProt P45983); assay: Kinase HotSpot 40-kinase panel; format: biochemical; conditions: single-dose concentration of 1 μM
T8 construct: purchased Reaction Biology Corp. (Kinase HotSpot)
Procedure: as §1, §2

FGFR1 = target: T9, FGFR1 (Homo sapiens, UniProt P11362); assay: Kinase HotSpot 40-kinase panel; format: biochemical; conditions: single-dose concentration of 1 μM
T9 construct: purchased Reaction Biology Corp. (Kinase HotSpot)
Procedure: as §1, §2

CaMKI = target: T10, CaMKI (Homo sapiens, UniProt Q14012); assay: Kinase HotSpot 40-kinase panel; format: biochemical; conditions: single-dose concentration of 1 μM
T10 construct: purchased Reaction Biology Corp. (Kinase HotSpot)
T10 sequence (Q14012 whole entry): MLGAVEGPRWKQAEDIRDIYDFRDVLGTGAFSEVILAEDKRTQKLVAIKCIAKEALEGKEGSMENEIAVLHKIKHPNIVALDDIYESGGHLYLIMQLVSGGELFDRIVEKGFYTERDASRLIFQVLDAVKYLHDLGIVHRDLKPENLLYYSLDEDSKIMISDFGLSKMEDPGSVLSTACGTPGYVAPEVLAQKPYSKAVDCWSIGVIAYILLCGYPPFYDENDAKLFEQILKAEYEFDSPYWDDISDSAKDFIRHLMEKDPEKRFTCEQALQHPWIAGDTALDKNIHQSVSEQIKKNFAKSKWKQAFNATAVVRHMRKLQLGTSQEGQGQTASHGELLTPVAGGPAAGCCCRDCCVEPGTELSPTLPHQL
Procedure: as §1, §2

ROS/ROS1 = target: T11, ROS/ROS1 (Homo sapiens, UniProt P08922); assay: Kinase HotSpot 40-kinase panel; format: biochemical; conditions: single-dose concentration of 1 μM
T11 construct: purchased Reaction Biology Corp. (Kinase HotSpot)
Procedure: as §1, §2

HIPK2 = target: T12, HIPK2 (Homo sapiens, UniProt Q9H2X6); assay: Kinase HotSpot 40-kinase panel; format: biochemical; conditions: single-dose concentration of 1 μM
T12 construct: purchased Reaction Biology Corp. (Kinase HotSpot)
Procedure: as §1, §2

SYK = target: T13, SYK (Homo sapiens, UniProt P43405); assay: Kinase HotSpot 40-kinase panel; format: biochemical; conditions: single-dose concentration of 1 μM
T13 construct: purchased Reaction Biology Corp. (Kinase HotSpot)
Procedure: as §1, §2

FYN = target: T14, FYN (Homo sapiens, UniProt P06241); assay: Kinase HotSpot 40-kinase panel; format: biochemical; conditions: single-dose concentration of 1 μM
T14 construct: purchased Reaction Biology Corp. (Kinase HotSpot)
Procedure: as §1, §2

CHK1 = target: T15, CHK1 (Homo sapiens, UniProt O14757); assay: Kinase HotSpot 40-kinase panel; format: biochemical; conditions: single-dose concentration of 1 μM
T15 construct: purchased Reaction Biology Corp. (Kinase HotSpot)
T15 sequence (O14757 whole entry): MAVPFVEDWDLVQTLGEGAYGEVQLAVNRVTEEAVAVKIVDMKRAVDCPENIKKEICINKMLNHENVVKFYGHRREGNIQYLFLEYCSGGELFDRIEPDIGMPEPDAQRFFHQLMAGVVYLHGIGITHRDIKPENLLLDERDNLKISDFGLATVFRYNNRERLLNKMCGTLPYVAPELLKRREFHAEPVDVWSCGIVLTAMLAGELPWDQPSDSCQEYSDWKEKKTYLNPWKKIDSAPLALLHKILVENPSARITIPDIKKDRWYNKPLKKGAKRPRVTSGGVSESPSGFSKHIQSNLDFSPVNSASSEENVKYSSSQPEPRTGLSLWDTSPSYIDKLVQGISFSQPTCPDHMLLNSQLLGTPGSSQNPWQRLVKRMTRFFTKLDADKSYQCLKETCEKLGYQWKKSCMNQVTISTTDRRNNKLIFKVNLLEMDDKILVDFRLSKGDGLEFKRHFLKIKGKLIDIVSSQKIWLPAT
Procedure: as §1, §2

LCK = target: T16, LCK (Homo sapiens, UniProt P06239); assay: Kinase HotSpot 40-kinase panel; format: biochemical; conditions: single-dose concentration of 1 μM
T16 construct: purchased Reaction Biology Corp. (Kinase HotSpot)
T16 sequence (P06239 whole entry): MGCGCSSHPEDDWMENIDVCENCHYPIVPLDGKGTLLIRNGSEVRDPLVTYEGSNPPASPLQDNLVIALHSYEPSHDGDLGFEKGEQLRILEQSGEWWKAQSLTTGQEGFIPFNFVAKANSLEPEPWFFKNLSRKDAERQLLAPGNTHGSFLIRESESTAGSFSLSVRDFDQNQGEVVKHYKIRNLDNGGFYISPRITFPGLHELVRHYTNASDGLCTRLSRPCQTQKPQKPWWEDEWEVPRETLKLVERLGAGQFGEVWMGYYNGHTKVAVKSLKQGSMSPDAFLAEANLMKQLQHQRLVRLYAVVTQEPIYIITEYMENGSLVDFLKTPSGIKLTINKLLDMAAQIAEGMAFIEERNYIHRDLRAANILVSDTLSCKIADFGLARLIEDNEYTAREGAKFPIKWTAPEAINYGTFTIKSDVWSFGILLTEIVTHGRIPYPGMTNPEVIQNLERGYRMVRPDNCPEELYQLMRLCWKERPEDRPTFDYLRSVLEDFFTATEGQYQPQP
Procedure: as §1, §2

FLT3 (D835Y) = target: T17, FLT3 (D835Y) (Homo sapiens, UniProt P36888, D835Y); assay: Kinase HotSpot 40-kinase panel; format: biochemical; conditions: single-dose concentration of 1 μM
T17 construct: purchased Reaction Biology Corp. (Kinase HotSpot)
Procedure: as §1, §2

P70S6K = target: T18, P70S6K (Homo sapiens, UniProt P23443); assay: Kinase HotSpot 40-kinase panel; format: biochemical; conditions: single-dose concentration of 1 μM
T18 construct: purchased Reaction Biology Corp. (Kinase HotSpot)
Procedure: as §1, §2

c-SRC = target: T19, c-SRC (Homo sapiens, UniProt P12931); assay: Kinase HotSpot 40-kinase panel; format: biochemical; conditions: single-dose concentration of 1 μM
T19 construct: purchased Reaction Biology Corp. (Kinase HotSpot)
Procedure: as §1, §2

EPHA1 = target: T20, EPHA1 (Homo sapiens, UniProt P21709); assay: Kinase HotSpot 40-kinase panel; format: biochemical; conditions: single-dose concentration of 1 μM
T20 construct: purchased Reaction Biology Corp. (Kinase HotSpot)
Procedure: as §1, §2

SAPK2a = target: T21, SAPK2a (Homo sapiens, UniProt Q16539); assay: Kinase HotSpot 40-kinase panel; format: biochemical; conditions: single-dose concentration of 1 μM
T21 construct: purchased Reaction Biology Corp. (Kinase HotSpot)
T21 sequence (Q16539 whole entry): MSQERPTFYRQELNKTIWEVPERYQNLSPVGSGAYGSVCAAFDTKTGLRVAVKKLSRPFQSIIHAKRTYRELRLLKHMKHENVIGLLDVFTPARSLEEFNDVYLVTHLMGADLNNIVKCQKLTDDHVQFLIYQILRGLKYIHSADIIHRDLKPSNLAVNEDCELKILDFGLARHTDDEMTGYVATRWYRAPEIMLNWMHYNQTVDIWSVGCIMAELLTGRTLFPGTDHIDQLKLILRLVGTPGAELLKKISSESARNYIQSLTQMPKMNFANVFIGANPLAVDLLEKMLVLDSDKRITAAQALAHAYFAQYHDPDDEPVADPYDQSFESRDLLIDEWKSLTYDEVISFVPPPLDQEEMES
Procedure: as §1, §2

PAK2 = target: T22, PAK2 (Homo sapiens, UniProt Q13177); assay: Kinase HotSpot 40-kinase panel; format: biochemical; conditions: single-dose concentration of 1 μM
T22 construct: purchased Reaction Biology Corp. (Kinase HotSpot)
T22 sequence (Q13177 whole entry): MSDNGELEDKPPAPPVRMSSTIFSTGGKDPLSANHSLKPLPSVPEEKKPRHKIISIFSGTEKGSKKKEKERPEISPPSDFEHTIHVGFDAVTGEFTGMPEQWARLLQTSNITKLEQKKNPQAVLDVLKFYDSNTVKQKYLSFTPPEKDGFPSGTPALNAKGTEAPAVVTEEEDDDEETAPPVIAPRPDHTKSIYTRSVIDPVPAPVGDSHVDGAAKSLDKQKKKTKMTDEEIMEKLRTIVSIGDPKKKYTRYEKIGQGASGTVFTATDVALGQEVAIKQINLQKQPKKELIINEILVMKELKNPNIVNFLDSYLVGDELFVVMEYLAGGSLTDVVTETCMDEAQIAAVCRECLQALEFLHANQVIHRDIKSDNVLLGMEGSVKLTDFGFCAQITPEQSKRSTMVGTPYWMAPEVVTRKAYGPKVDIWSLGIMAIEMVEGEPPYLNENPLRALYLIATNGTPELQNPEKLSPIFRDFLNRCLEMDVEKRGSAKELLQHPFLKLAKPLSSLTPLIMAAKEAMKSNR
Procedure: as §1, §2

MEK1 = target: T23, MEK1 (Homo sapiens, UniProt Q02750); assay: Kinase HotSpot 40-kinase panel; format: biochemical; conditions: single-dose concentration of 1 μM
T23 construct: purchased Reaction Biology Corp. (Kinase HotSpot)
Procedure: as §1, §2

BTK = target: T24, BTK (Homo sapiens, UniProt Q06187); assay: Kinase HotSpot 40-kinase panel; format: biochemical; conditions: single-dose concentration of 1 μM
T24 construct: purchased Reaction Biology Corp. (Kinase HotSpot)
T24 sequence (Q06187 whole entry): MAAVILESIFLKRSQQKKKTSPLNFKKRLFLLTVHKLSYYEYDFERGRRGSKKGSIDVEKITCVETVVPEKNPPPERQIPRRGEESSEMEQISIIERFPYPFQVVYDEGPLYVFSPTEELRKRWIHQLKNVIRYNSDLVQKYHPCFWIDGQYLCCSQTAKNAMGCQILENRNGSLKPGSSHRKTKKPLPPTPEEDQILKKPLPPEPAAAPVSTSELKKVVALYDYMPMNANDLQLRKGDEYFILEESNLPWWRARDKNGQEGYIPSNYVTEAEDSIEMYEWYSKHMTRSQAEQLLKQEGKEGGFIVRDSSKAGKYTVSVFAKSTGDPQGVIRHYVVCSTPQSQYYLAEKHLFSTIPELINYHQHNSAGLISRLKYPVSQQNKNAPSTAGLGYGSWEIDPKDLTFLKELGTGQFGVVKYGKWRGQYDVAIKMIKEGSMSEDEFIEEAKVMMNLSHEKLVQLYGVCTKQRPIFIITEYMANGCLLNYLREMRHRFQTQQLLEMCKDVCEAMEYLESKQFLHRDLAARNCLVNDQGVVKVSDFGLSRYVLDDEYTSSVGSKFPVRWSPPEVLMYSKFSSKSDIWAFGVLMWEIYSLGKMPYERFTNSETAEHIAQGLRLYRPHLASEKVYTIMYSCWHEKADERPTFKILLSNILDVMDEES
Procedure: as §1, §2

EGFR (T790M) = target: T25, EGFR (T790M) (Homo sapiens, UniProt P00533, T790M); assay: Kinase HotSpot 40-kinase panel; format: biochemical; conditions: single-dose concentration of 1 μM
T25 construct: purchased Reaction Biology Corp. (Kinase HotSpot)
Procedure: as §1, §2

c-MET = target: T26, c-MET (Homo sapiens, UniProt P08581); assay: Kinase HotSpot 40-kinase panel; format: biochemical; conditions: single-dose concentration of 1 μM
T26 construct: purchased Reaction Biology Corp. (Kinase HotSpot)
Procedure: as §1, §2

IGF-1R = target: T27, IGF-1R (Homo sapiens, UniProt P08069); assay: Kinase HotSpot 40-kinase panel; format: biochemical; conditions: single-dose concentration of 1 μM
T27 construct: purchased Reaction Biology Corp. (Kinase HotSpot)
Procedure: as §1, §2

RSK1 = target: T28, RSK1 (Homo sapiens, UniProt Q15418); assay: Kinase HotSpot 40-kinase panel; format: biochemical; conditions: single-dose concentration of 1 μM
T28 construct: purchased Reaction Biology Corp. (Kinase HotSpot)
Procedure: as §1, §2

KDR = target: T29, KDR (Homo sapiens, UniProt P35968); assay: Kinase HotSpot 40-kinase panel; format: biochemical; conditions: single-dose concentration of 1 μM
T29 construct: purchased Reaction Biology Corp. (Kinase HotSpot)
Procedure: as §1, §2

ROCK1 = target: T30, ROCK1 (Homo sapiens, UniProt Q13464); assay: Kinase HotSpot 40-kinase panel; format: biochemical; conditions: single-dose concentration of 1 μM
T30 construct: purchased Reaction Biology Corp. (Kinase HotSpot)
Procedure: as §1, §2

ALK = target: T31, ALK (Homo sapiens, UniProt Q9UM73); assay: Kinase HotSpot 40-kinase panel; format: biochemical; conditions: single-dose concentration of 1 μM
T31 construct: purchased Reaction Biology Corp. (Kinase HotSpot)
Procedure: as §1, §2

GSK3β = target: T32, GSK3β (Homo sapiens, UniProt P49841); assay: Kinase HotSpot 40-kinase panel; format: biochemical; conditions: single-dose concentration of 1 μM
T32 construct: purchased Reaction Biology Corp. (Kinase HotSpot)
T32 sequence (P49841 whole entry): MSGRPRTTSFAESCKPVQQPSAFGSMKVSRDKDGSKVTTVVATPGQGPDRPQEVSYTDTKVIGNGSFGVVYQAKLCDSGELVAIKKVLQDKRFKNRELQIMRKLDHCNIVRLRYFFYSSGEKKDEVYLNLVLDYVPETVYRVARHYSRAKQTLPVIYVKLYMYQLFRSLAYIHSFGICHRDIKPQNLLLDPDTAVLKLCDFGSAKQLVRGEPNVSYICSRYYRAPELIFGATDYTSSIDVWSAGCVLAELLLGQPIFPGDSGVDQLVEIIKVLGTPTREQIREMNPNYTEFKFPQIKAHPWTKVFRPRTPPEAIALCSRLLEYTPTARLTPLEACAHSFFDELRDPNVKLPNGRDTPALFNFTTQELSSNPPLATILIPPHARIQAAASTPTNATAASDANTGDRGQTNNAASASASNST
Procedure: as §1, §2

CDK5/p25 = target: T33, CDK5/p25 (Homo sapiens, UniProt Q00535); assay: Kinase HotSpot 40-kinase panel; format: biochemical; conditions: single-dose concentration of 1 μM
T33 construct: purchased Reaction Biology Corp. (Kinase HotSpot)
Procedure: as §1, §2

MLK1 = target: T34, MLK1 (Homo sapiens, UniProt P80192); assay: Kinase HotSpot 40-kinase panel; format: biochemical; conditions: single-dose concentration of 1 μM
T34 construct: purchased Reaction Biology Corp. (Kinase HotSpot)
T34 sequence (P80192 whole entry): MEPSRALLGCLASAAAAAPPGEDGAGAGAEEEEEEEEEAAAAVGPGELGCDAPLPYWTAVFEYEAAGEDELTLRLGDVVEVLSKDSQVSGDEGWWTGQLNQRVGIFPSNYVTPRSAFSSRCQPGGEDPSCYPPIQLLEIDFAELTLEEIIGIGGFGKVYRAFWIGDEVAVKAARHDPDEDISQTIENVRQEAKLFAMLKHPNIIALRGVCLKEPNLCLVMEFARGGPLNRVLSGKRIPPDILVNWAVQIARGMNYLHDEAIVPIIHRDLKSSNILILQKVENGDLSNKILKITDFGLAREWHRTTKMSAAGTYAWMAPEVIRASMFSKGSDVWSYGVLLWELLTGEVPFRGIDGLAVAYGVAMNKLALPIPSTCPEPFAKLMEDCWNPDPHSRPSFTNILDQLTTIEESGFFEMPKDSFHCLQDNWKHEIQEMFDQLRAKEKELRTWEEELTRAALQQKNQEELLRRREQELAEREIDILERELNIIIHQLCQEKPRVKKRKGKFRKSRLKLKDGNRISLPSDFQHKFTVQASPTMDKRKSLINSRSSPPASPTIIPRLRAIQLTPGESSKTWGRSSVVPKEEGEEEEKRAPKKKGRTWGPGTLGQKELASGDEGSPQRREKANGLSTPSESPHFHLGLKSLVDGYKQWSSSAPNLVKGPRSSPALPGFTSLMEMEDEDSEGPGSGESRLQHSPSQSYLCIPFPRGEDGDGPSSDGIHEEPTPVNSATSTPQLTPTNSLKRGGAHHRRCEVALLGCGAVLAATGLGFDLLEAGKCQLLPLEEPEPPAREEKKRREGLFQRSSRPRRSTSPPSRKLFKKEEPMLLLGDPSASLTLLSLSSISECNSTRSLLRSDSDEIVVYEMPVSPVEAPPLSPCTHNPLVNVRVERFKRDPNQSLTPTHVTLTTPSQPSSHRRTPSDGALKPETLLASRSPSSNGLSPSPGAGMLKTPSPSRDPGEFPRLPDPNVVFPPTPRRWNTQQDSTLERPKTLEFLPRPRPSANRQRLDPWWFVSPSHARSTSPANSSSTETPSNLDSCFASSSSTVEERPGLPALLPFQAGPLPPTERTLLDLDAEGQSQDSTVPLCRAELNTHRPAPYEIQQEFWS
Procedure: as §1, §2

RET = target: T35, RET (Homo sapiens, UniProt P07949); assay: Kinase HotSpot 40-kinase panel; format: biochemical; conditions: single-dose concentration of 1 μM
T35 construct: purchased Reaction Biology Corp. (Kinase HotSpot)
Procedure: as §1, §2

IR = target: T36, IR (Homo sapiens, UniProt P06213); assay: Kinase HotSpot 40-kinase panel; format: biochemical; conditions: single-dose concentration of 1 μM
T36 construct: purchased Reaction Biology Corp. (Kinase HotSpot)
Procedure: as §1, §2

mTOR = target: T37, mTOR (Homo sapiens, UniProt P42345); assay: Kinase HotSpot 40-kinase panel; format: biochemical; conditions: single-dose concentration of 1 μM
T37 construct: purchased Reaction Biology Corp. (Kinase HotSpot)
Procedure: as §1, §2

DMPK = target: T38, DMPK (Homo sapiens, UniProt Q09013); assay: Kinase HotSpot 40-kinase panel; format: biochemical; conditions: single-dose concentration of 1 μM
T38 construct: purchased Reaction Biology Corp. (Kinase HotSpot)
Procedure: as §1, §2

PIM1 = target: T39, PIM1 (Homo sapiens, UniProt P11309); assay: Kinase HotSpot 40-kinase panel; format: biochemical; conditions: single-dose concentration of 1 μM
T39 construct: purchased Reaction Biology Corp. (Kinase HotSpot)
T39 sequence (P11309 whole entry): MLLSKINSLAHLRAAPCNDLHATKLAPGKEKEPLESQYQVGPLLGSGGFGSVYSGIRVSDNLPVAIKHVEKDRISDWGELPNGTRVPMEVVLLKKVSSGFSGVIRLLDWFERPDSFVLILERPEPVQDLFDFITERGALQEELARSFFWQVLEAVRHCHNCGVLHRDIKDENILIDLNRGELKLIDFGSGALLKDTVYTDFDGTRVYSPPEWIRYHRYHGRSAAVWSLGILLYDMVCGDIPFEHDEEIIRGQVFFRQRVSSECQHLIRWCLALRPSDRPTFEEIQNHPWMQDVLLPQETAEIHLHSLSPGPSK
Procedure: as §1, §2

## O=C(Nc1cccc(-n2ccc3c(NC(=O)c4ccccc4)nccc32)c1)c1ccc(N2CCOCC2)c(C(F)(F)F)c1 [KIST101029, reference compound]
HS 27 fibroblasts
  IC50: 0.3 µM
IKKβ
  inhibition at 1 µM: 23%
ABL1
  inhibition at 1 µM: 41%
Aurora A
  inhibition at 1 µM: 21%
PDK1
  inhibition at 1 µM: -1%
PLK1
  inhibition at 1 µM: 4%
TEC (activated)
  inhibition at 1 µM: 14%
CDK2/cyclinE
  inhibition at 1 µM: -12%
JNK1α1
  inhibition at 1 µM: -1%
FGFR1
  inhibition at 1 µM: 6%
CaMKI
  inhibition at 1 µM: -1%
ROS/ROS1
  inhibition at 1 µM: 19%
HIPK2
  inhibition at 1 µM: 9%
SYK
  inhibition at 1 µM: 6%
FYN
  inhibition at 1 µM: 44%
CHK1
  inhibition at 1 µM: -8%
LCK
  inhibition at 1 µM: 33%
FLT3 (D835Y)
  inhibition at 1 µM: 16%
P70S6K
  inhibition at 1 µM: 7%
c-SRC
  inhibition at 1 µM: 10%
EPHA1
  inhibition at 1 µM: 9%
SAPK2a
  inhibition at 1 µM: 25%
PAK2
  inhibition at 1 µM: 2%
MEK1
  inhibition at 1 µM: 12%
BTK
  inhibition at 1 µM: 7%
EGFR (T790M)
  inhibition at 1 µM: 1%
c-MET
  inhibition at 1 µM: -16%
IGF-1R
  inhibition at 1 µM: 10%
RSK1
  inhibition at 1 µM: 8%
KDR
  inhibition at 1 µM: 71%
ROCK1
  inhibition at 1 µM: 3%
ALK
  inhibition at 1 µM: 11%
GSK3β
  inhibition at 1 µM: 4%
CDK5/p25
  inhibition at 1 µM: 8%
MLK1
  inhibition at 1 µM: -1%
RET
  inhibition at 1 µM: 57%
IR
  inhibition at 1 µM: 2%
mTOR
  inhibition at 1 µM: -10%
DMPK
  inhibition at 1 µM: -18%
PIM1
  inhibition at 1 µM: 10%
